Where a name gives a salt, the structure may show the parent alone.
These molecules were tested against Factor D (Homo sapiens (Human), UniProt P00746) (assay: biochemical). Details: read-out: IC50.
Assay type: biochemical

Factor D, sequence (P00746 26-253): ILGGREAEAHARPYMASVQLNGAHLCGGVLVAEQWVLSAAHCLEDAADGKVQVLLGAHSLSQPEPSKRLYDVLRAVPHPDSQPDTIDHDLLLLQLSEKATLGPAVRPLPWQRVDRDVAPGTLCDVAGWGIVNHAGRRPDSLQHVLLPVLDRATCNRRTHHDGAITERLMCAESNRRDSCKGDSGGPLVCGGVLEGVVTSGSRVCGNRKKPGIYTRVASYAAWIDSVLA

Row | SMILES | IC50
1 | CO[C@H]1[C@@H](C(=O)Nc2cccc(OC(F)(F)F)c2F)N(C(=O)Cn2nc(C(N)=O)c3ccccc32)C[C@@H]1F [Example 628, 1-{2-[(2S,3S,4S)-4-Fluoro-2-(2-fluoro-3-trifluoromethoxy-phenylcarbamoyl)-3-methoxy-pyrrolidin-1-yl]-2-oxo-ethyl}-1H-indazole-3-carboxylic acid amide] | 38 nM
2 | CO[C@H]1[C@@H](C(=O)Nc2cccc(OC(F)(F)F)c2F)N(C(=O)Cn2nc(C(N)=O)c3ccncc32)C[C@@H]1F [Example 629, 1-{2-[(2S,3S,4S)-4-Fluoro-2-(2-fluoro-3-trifluoromethoxy-phenylcarbamoyl)-3-methoxy-pyrrolidin-1-yl]-2-oxo-ethyl}-1H-pyrazolo[3,4-c]pyridine-3-carboxylic acid amide trifluoroacetate] | 17 nM
3 | CO[C@H]1[C@@H](C(=O)NCc2cccc(Cl)c2F)N(C(=O)Cn2nc(C(C)=O)c3cnccc32)C[C@@H]1F [Example 630, (2S,3S,4S)-1-[2-(3-Acetyl-pyrazolo[4,3-c]pyridin-1-yl)-acetyl]-4-fluoro-3-methoxy-pyrrolidine-2-carboxylic acid 3-chloro-2-fluoro-benzylamide] | 36 nM
4 | CO[C@H]1[C@@H](C(=O)NC2(c3cccc(Cl)c3F)CC2)N(C(=O)Cn2nc(C(C)=O)c3ccncc32)C[C@@H]1F [Example 631, (2S,3S,4S)-1-[2-(3-Acetyl-pyrazolo[3,4-c]pyridin-1-yl)-acetyl]-4-fluoro-3-methoxy-pyrrolidine-2-carboxylic acid [1-(3-chloro-2-fluoro-phenyl)-cyclopropyl]-amide] | 11 nM
5 | COC(=O)c1ccc2c(C(C)=O)nn(CC(=O)N3[C@@H]4C[C@@H]4C[C@H]3C(=O)NCc3cccc(Cl)c3F)c2c1 [Example 632, 3-Acetyl-1-{2-[(1R,3S,5R)-3-(3-chloro-2-fluoro-benzylcarbamoyl)-2-aza-bicyclo [3.1.0]hex-2-yl]-2-oxo-ethyl}-1H-indazole-6-carboxylic acid methyl ester] | 18 nM
6 | CC(=O)c1nn(CC(=O)N2[C@@H]3C[C@@H]3C[C@H]2C(=O)NC2(c3cccc(Cl)c3F)COC2)c2ncccc12 [Example 633, (1R,3S,5R)-2-[2-(3-Acetyl-pyrazolo[3,4-b]pyridin-1-yl)-acetyl]-2-aza-bicyclo [3.1.0]hexane-3-carboxylic acid [3-(3-chloro-2-fluoro-phenyl)-oxetan-3-yl]-amide] | 55 nM
7 | CC(=O)c1cn(CC(=O)N2C[C@H](F)[C@@H](OCCN(C)C)[C@H]2C(=O)NCc2cccc(Cl)c2F)c2ccccc12 [Example 634, (2S,3S,4S)-1-[2-(3-Acetyl-indol-1-yl)-acetyl]-3-(2-dimethylamino-ethoxy)-4-fluoro-pyrrolidine-2-carboxylic acid 3-chloro-2-fluoro-benzylamide formate] | 53 nM
8 | CC(=O)c1nn(CC(=O)N2C[C@H](F)[C@@H](O)[C@H]2C(=O)NC2(c3cccc(Cl)c3F)CC2)c2cnccc12 [Example 635, (2S,3S,4S)-1-[2-(3-Acetyl-pyrazolo[3,4-c]pyridin-1-yl)-acetyl]-4-fluoro-3-hydroxy-pyrrolidine-2-carboxylic acid [1-(3-chloro-2-fluoro-phenyl)-cyclopropyl]-amide formate] | 18 nM
9 | CO[C@H]1[C@@H](C(=O)Nc2cccc(OC(F)(F)F)c2F)N(C(=O)Cn2nc(C(N)=O)c3cc(C)ncc32)C[C@@H]1F [Example 636, 1-{2-[(2S,3S,4S)-4-Fluoro-2-(2-fluoro-3-trifluoromethoxy-phenylcarbamoyl)-3-methoxy-pyrrolidin-1-yl]-2-oxo-ethyl}-5-methyl-1H-pyrazolo[3,4-c]pyridine-3-carboxylic acid amide triflate] | 13 nM
10 | CCc1cc2c(C(N)=O)nn(CC(=O)N3C[C@H](F)[C@@H](OC)[C@H]3C(=O)Nc3cccc(OC(F)(F)F)c3F)c2cn1 [Example 637, 5-Ethyl-1-{2-[(2S,3S,4S)-4-fluoro-2-(2-fluoro-3-trifluoromethoxy-phenylcarbamoyl)-3-methoxy-pyrrolidin-1-yl]-2-oxo-ethyl}-1H-pyrazolo[3,4-c]pyridine-3-carboxylic acid amide triflate] | 9 nM
11 | CO[C@H]1[C@@H](C(=O)Nc2cccc(OC(F)(F)F)c2F)N(C(=O)Cn2nc(C(C)=O)c3cc(OCc4ncccn4)ccc32)C[C@@H]1F [Example 638, (2S,3S,4S)-1-{2-[3-Acetyl-5-(pyrimidin-2-ylmethoxy)-indazol-1-yl]-acetyl}-4-fluoro-3-methoxy-pyrrolidine-2-carboxylic acid (2-fluoro-3-trifluoromethoxy-phenyl)-amide] | 5 nM
12 | CC(=O)c1nn(CC(=O)N2[C@@H]3C[C@@H]3C[C@H]2C(=O)NCc2cccc(Cl)c2F)c2cc(C(=O)O)ccc12 [Example 639, 3-Acetyl-1-{2-[(1R,3S,5R)-3-(3-chloro-2-fluoro-benzylcarbamoyl)-2-aza-bicyclo[3.1.0]hex-2-yl]-2-oxo-ethyl}-1H-indazole-6-carboxylic acid] | 62 nM
13 | CO[C@H]1[C@@H](C(=O)NCc2cccc(Cl)c2F)N(C(=O)Cn2nc(C(C)=O)c3ccc(C(=O)O)cc32)C[C@@H]1F [Example 640, 3-Acetyl-1-{2-[(2S,3S,4S)-2-(3-chloro-2-fluoro-benzylcarbamoyl)-4-fluoro-3-methoxy-pyrrolidin-1-yl]-2-oxo-ethyl}-1H-indazole-6-carboxylic acid] | 8 nM
14 | CC(=O)c1cn(CC(=O)N2[C@@H]3C[C@@H]3C[C@H]2C(=O)N[C@H](C)c2cccc(Cl)c2F)c2cnccc12 [Example 641, (1R,3S,5R)-2-[2-(3-Acetyl-pyrrolo[2,3-c]pyridin-1-yl)-acetyl]-2-aza-bicyclo[3.1.0]hexane-3-carboxylic acid [(R)-1-(3-chloro-2-fluoro-phenyl)-ethyl]-amide] | 32 nM
15 | CC(=O)c1nn(CC(=O)N2[C@@H]3C[C@@H]3C[C@H]2C(=O)N[C@H](CCN(C)C)c2cccc(Cl)c2F)c2ccccc12 [Example 642, (1R,3S,5R)-2-[2-(3-Acetyl-indazol-1-yl)-acetyl]-2-aza-bicyclo[3.1.0]hexane-3-carboxylic acid [(R)-1-(3-chloro-2-fluoro-phenyl)-3-dimethylamino-propyl]-amide] | 15 nM
16 | CO[C@H]1[C@@H](C(=O)N[C@H](C)c2cccc(Cl)c2F)N(C(=O)Cn2nc(C(N)=O)c3cccnc32)C[C@@H]1F [Example 643, 1-(2-{(2S,3S,4S)-2-[(R)-1-(3-Chloro-2-fluoro-phenyl)-ethylcarbamoyl]-4-fluoro-3-methoxy-pyrrolidin-1-yl}-2-oxo-ethyl)-1H-pyrazolo[3,4-b]pyridine-3-carboxylic acid amide] | 25 nM
17 | CC(=O)c1nc(CC(=O)N2[C@@H]3C[C@@H]3C[C@H]2C(=O)N[C@H](CO)c2cccc(Cl)c2F)n2ccccc12 [Example 644, (1R,3S,5R)-2-[2-(1-Acetyl-imidazo[1,5-a]pyridin-3-yl)-acetyl]-2-aza-bicyclo [3.1.0]hexane-3-carboxylic acid [(S)-1-(3-chloro-2-fluoro-phenyl)-2-hydroxy-ethyl]-amide] | 79 nM
18 | CCC(=O)c1cn(CC(=O)N2[C@@H]3C[C@@H]3C[C@H]2C(=O)NCc2cccc(Cl)c2F)c2cnccc12 [Example 645, (1R,3S,5R)-2-[2-(3-Propionyl-pyrrolo[2,3-c]pyridin-1-yl)-acetyl]-2-aza-bicyclo [3.1.0]hexane-3-carboxylic acid 3-chloro-2-fluoro-benzylamide] | 132 nM

Reference: patent US9085555B2, “Complement pathway modulators and uses thereof” (priority 2011, dated 2015)
